Reference: the Biogen ADME set (Fang et al. 2023)
Converted amounts (≈) assume the structure as drawn.

Settings: for aqueous solubility: pH 6.8

Row | MDR1-MDCK efflux ratio | intrinsic clearance, human liver microsomes [mL/min/kg] | intrinsic clearance, rat liver microsomes [mL/min/kg] | aqueous solubility [µg/mL] | fraction unbound, human plasma | fraction unbound, rat plasma | Compound
1 | 148 | 10.7 | 151 | 37 (≈ 86.3 µM) |  |  | CCCCC1=NC2(CCCC2)C(=O)N1Cc1ccc(-c2ccccc2-c2nn[nH]n2)cc1
2 | 1.06 | 63.1 | 2860 | 13.6 (≈ 45.9 µM) |  |  | COc1ccc2c(c1)CN(C(=O)c1cc(C3CC3)[nH]n1)CC2
3 | 0.521 | 34.4 | 217 | 8.88 (≈ 26.6 µM) |  |  | CNC(=O)c1cnc(/C=C/c2csc(-c3cccs3)n2)s1
4 |  |  |  | 0.18 (≈ 0.529 µM) |  |  | Cc1ccc(NC(=O)c2cc(-c3ccccn3)nc3ccccc23)nc1
5 | 0.729 |  |  | 0.66 (≈ 1.92 µM) |  |  | O=C(Nc1nncs1)c1ccc(N2CCC3(CCCCC3)C2)nc1
6 | 7.73 | 55.8 | 294 | 36.4 (≈ 86.6 µM) |  |  | CC1(C)Cc2cc(CN3CCC4(CC3)NC(=O)N(Cc3ccccc3)C4=O)ccc2O1
7 | 1.89 | 81.4 | 2150 | 41.8 (≈ 114 µM) |  |  | COc1ccccc1-c1ccc(CC2(C(=O)NC3CC3)CCOCC2)cc1
8 | 4.87 | 8.89 | 129 | 14.3 (≈ 57.5 µM) |  |  | N#Cc1cc(-c2n[nH]c(-c3ccncc3)n2)ccn1
9 | 0.608 | 117 | 689 | 4.67 (≈ 18.8 µM) |  |  | Cn1ncc2cc(-c3ccnc4[nH]ccc34)ccc21
10 | 20 |  |  | 80.4 (≈ 145 µM) |  |  | Cc1ccc(S(=O)(=O)Nc2ccc3c(c2)c(C(=O)C(F)(F)F)cn3CC(=O)N[C@@H](CC(C)C)C(=O)O)cc1
11 | 26.5 | 82.5 | 507 | 25.8 (≈ 64.8 µM) |  |  | CC(=O)Nc1ccnn1C1CCN(Cc2ccccc2C#Cc2ccccc2)CC1
12 | 2.87 | 41.7 | 591 |  |  |  | Cc1ccc(S(=O)(=O)N2CCC(c3nnc(-c4cccnc4)o3)C2)cc1 (stereo unspecified)
13 | 0.798 | 82.5 | 765 | 19.9 (≈ 85.2 µM) |  |  | CCCn1ncnc1-c1ccccc1SC
14 |  | 51.2 | 587 |  |  |  | CC(=O)NC[C@H]1C[C@]2(C)[C@@H](CCCC[C@]2(C)O)N1CC1(O)CCCCCC1
15 | 1.3 | 12.5 | 2880 |  |  |  | CC(COc1ccccc1Cc1ccccc1)N1CCCCC1 (stereo unspecified)
16 |  | 18.5 | 137 |  |  |  | CN1C(=O)c2ccc(C(=O)N3CCN(C4CCCCC4)CC3)cc2C1=O
17 | 0.565 | 123 | 1950 | 9.67 (≈ 28.9 µM) |  |  | O=C(NCCc1ccc2c(c1)OCCO2)c1ccc2ccccc2n1
18 | 1.87 | 62 | 1010 | 54.8 (≈ 156 µM) |  |  | CCCS(=O)(=O)N1CCCC(C(=O)N2CCc3ccccc3C2)C1 (stereo unspecified)
19 | 12.5 | ≤ 4.74 | 84 | 52.6 (≈ 173 µM) |  |  | O=c1ccc(C2CC2)nn1CC1CN(CC2(O)CCCC2)C1
20 | 31.2 | 12.1 | 553 | 44.9 (≈ 113 µM) |  |  | CC(=O)NCCCOc1ccc(CN2C[C@H](Oc3cccc(C)c3)[C@@H](O)C2)cc1

Row | MDR1-MDCK efflux ratio | intrinsic clearance, human liver microsomes [mL/min/kg] | intrinsic clearance, rat liver microsomes [mL/min/kg] | aqueous solubility [µg/mL] | fraction unbound, human plasma | fraction unbound, rat plasma | Compound
21 | 0.557 | 90 | 280 | 30.4 (≈ 123 µM) |  |  | Cc1ccccc1C(=O)Nc1nc(C)c(C)s1
22 | 0.905 | ≤ 4.74 | 363 |  |  |  | Cn1cc(CNc2ncccn2)c(C(C)(C)C)n1
23 | 4.21 | ≤ 4.74 | ≤ 10.7 | 27.7 (≈ 124 µM) |  |  | Cc1nc(NCc2scnc2C)n(C)n1
24 | 19.2 | ≤ 4.74 | ≤ 10.7 | 46.9 (≈ 157 µM) |  |  | CNC(=O)c1cccc(Oc2ncnc3c2CN(C)CC3)c1
25 | 2 | ≤ 4.74 | ≤ 10.7 | 42.8 (≈ 184 µM) |  |  | Cc1ccc(CC(=O)Nc2nc(C)no2)cn1
26 | 0.671 | 67.1 | 105 | 24 (≈ 107 µM) |  |  | COc1cncc(-c2ccnc3[nH]ccc23)c1
27 | 0.74 | 11 | 39.2 | 77.2 (≈ 287 µM) |  |  | O=C(Nc1ccccc1-n1ccnc1)c1cccs1
28 | 0.536 | 59.6 | 350 | 46.6 (≈ 166 µM) |  |  | Cc1nccc(-c2cccc(NCc3cc(C)on3)c2)n1
29 | 0.552 | 16 | 456 |  |  |  | N#Cc1ccccc1NC(=O)CCc1ccccc1
30 | 2.92 | ≤ 4.74 | 30.6 |  |  |  | CCOCCC(=O)N1CCC2(CCCN(C)CC2)CC1
31 | 0.823 | ≤ 4.74 | ≤ 10.7 | 50 (≈ 213 µM) |  |  | CNC(=O)CC1CCN(c2ncccn2)CC1
32 | 0.729 |  |  | 0.19 (≈ 0.529 µM) |  |  | Clc1cc2c(NC3CCCC3)nnc(-c3ccncc3)c2cc1Cl
33 |  | 111 | 1250 | 35.2 (≈ 120 µM) |  |  | CN(Cc1c(F)cccc1Cl)C(=O)C1(C#N)CCCC1
34 | 0.596 | 8.8 | 221 | 11.2 (≈ 51.4 µM) |  |  | Cc1nnnn1CCN(C)c1ccccc1
35 | 53.3 | ≤ 4.74 | ≤ 10.7 | 2.2 (≈ 5.74 µM) | 0.363 | 0.231 | Cn1cc(-c2cn3nccc3c(-c3cnn([C@]4(CC#N)C[C@@H](C#N)C4)c3)n2)cn1
36 | 16.9 | 16 | 308 |  |  |  | Cn1cnnc1-c1cccc(NS(=O)(=O)c2cc3c(cc2Cl)OCCO3)c1
37 | 0.533 | 116 | 831 | 44.6 (≈ 159 µM) |  |  | O=C(CCc1ccco1)Nc1ccccc1OC(F)F
38 |  |  |  | 4.18 (≈ 12.6 µM) |  |  | Cc1[nH]ncc1-c1nn2c(Cc3ccccc3Cl)nnc2s1
39 | 6.76 | ≤ 4.74 |  |  | 0.521 |  | NC1CCCC1C(=O)N1CCC(c2c[nH]c3ncccc23)CC1 (stereo unspecified)
40 | 2.82 | 17.3 | 166 |  |  |  | COc1cc(C#N)ccc1Cn1ccnc1C(C)C

Row | Compound | MDR1-MDCK efflux ratio | intrinsic clearance, human liver microsomes [mL/min/kg] | intrinsic clearance, rat liver microsomes [mL/min/kg] | aqueous solubility [µg/mL] | fraction unbound, human plasma | fraction unbound, rat plasma
41 | Cn1nc(C2CCNCC2)c2cccnc21 | 6.86 | ≤ 4.74 | 36.3 | 53.4 (≈ 247 µM) |  | 
